Reference: patent US10611731B2, “5-methyl-6-phenyl-4,5-dihydro-2H-pyridazin-3-one derivative” (OTSUKA PHARMACEUTICAL CO., LTD., priority 2016, dated 2020)

tested on: human childhood brain tumor cell lines (PFSK-1); assay: Growth inhibitory activity against PFSK-1 cells (WST-8, Cell Counting Kit-8); assay type: cell-based; details: Homo sapiens, 72 h, 3 days incubation with test compound, WST-8 OD 450/630 nm, read-out: IC50 (concentration inhibiting 50% of the cell growth)
Protocol: The growth inhibitory activity against human childhood brain tumor cell lines (PFSK-1) was measured with WST-8 reagent [2-(2-methoxy-4-nitrophenyl)-3-(4-nitrophenyl)-5-(2,4-disulfophenyl)-2H-tetrazolium monosodium salt, Cell Counting Kit-8™], according to the method described in Tominaga, H. et al., Anal. Commun., 1999, 36, 47-50. Briefly, PFSK-1 was seeded in 96-well microplate at 100 μL/well with Roswell Park Memorial Institute (RPMI) 1640 medium containing 10% fetal bovine serum (FBS), and the cells were incubated in the presence of 5% carbon dioxide (CO2) at 37° C. for 24 hours. 50 μL of each test compound diluted with the medium was added to each well, and then the cells were incubated further for 3 days. After the incubation, 15 μL of Cell Counting Kit-8™ was added to each well, and the cells were incubated for one and half hours. Then, optical density (OD) values at measurement wavelength 450 nm and reference wavelength 630 nm were measured and the difference thereof was calculated. From the calculated difference, the OD value difference (at measurement wavelength 450 nm and reference wavelength 630 nm) of the control well which includes no cell was subtracted to afford cell-growth activity in each well.
The cell growth inhibitory activity of each test compound was calculated by comparing the cell-growth activity with each test compound to the cell-growth activity without any test compound (control), and each IC50 (nM) which is the concentration inhibiting 50% of the cell growth was calculated.

Row | IC50 | Compound
1 | 4.2 nM | CC1CC(=O)NN=C1c1ccc(OCC(C)(C)CO)c(F)c1F (centres unmarked) [Example 9, 6-[2,3-Difluoro-4-(3-hydroxy-2,2-dimethylpropoxy)phenyl]-5-methyl-4,5-dihydro-2H-pyridazin-3-one]
2 | 7.9 nM | CC1CC(=O)NN=C1c1ccc(OCC(F)(F)CO)c(Cl)c1F (centres unmarked) [Example 110, 6-[3-Chloro-4-(2,2-difluoro-3-hydroxypropoxy)-2-fluorophenyl]-5-methyl-4,5-dihydro-2H-pyridazin-3-one]
3 | < 1 nM | C[C@@H]1CC(=O)NN=C1c1cc(Cl)c(OCC(C)(C)CO)c(Br)c1 [Example 127, (5R)-(−)-6-[3-bromo-5-chloro-4-(3-hydroxy-2,2-dimethylpropoxy)phenyl]-5-methyl-4,5-dihydro-2H-pyridazin-3-one]
4 | 4 nM | CC1CC(=O)NN=C1c1cc(F)c(OCCCO)c(Cl)c1 (centres unmarked) [Example 15, 6-[3-Chloro-5-fluoro-4-(3-hydroxypropoxy)phenyl]-5-methyl-4,5-dihydro-2H-pyridazin-3-one]
5 | 6.3 nM | Cc1c(OCC(C)(C)O)ccc(C2=NNC(=O)CC2C)c1O (centres unmarked) [Example 28, 6-[2-Hydroxy-4-(2-hydroxy-2-methylpropoxy)-3-methylphenyl]-5-methyl-4,5-dihydro-2H-pyridazin-3-one]
6 | 2.6 nM | CC1CC(=O)NN=C1c1cc(F)c(OCC(C)(C)O)c(Cl)c1 (centres unmarked) [Example 25, 6-[3-Chloro-5-fluoro-4-(2-hydroxy-2-methylpropoxy)phenyl]-5-methyl-4,5-dihydro-2H-pyridazin-3-one]
7 | 4.1 nM | Cc1c(OCC(C)O)ccc(C2=NNC(=O)CC2C)c1O (centres unmarked) [Example 74, 6-[2-hydroxy-4-(2-hydroxypropoxy)-3-methylphenyl]-5-methyl-4,5-dihydro-2H-pyridazin-3-one]
8 | 7 nM | Cc1c(O)c(C2=NNC(=O)CC2C)cc(Cl)c1OCC(C)(C)O (centres unmarked) [Example 130, 6-[5-Chloro-2-hydroxy-4-(2-hydroxy-2-methylpropoxy)-3-methylphenyl]-5-methyl-4,5-dihydro-2H-pyridazin-3-one]
9 | 4.6 nM | Cc1cc(C2=NNC(=O)CC2C)c(F)c(C)c1OCCCO (centres unmarked) [Example 141, 6-[2-Fluoro-4-(3-hydroxypropoxy)-3,5-dimethylphenyl]-5-methyl-4,5-dihydro-2H-pyridazin-3-one]
10 | 4.5 nM | C[C@@H]1CC(=O)NN=C1c1ccc(OC/C=C\CO)c(Cl)c1O [Example 183, (5R)-(−)-6-{3-chloro-2-hydroxy-4-[(Z)-4-hydroxy-2-butenyloxy]phenyl}-5-methyl-4,5-dihydro-2H-pyridazin-3-one]
11 | 2.9 nM | CC(O)COc1c(F)cc(C2=NNC(=O)CC2C)cc1Br (centres unmarked) [Example 50, 6-[3-Bromo-5-fluoro-4-(2-hydroxypropoxy)phenyl]-5-methyl-4,5-dihydro-2H-pyridazin-3-one]
12 | 4.7 nM | CCc1c(OCC(C)O)ccc(C2=NNC(=O)CC2C)c1F (centres unmarked) [Example 60, 6-[3-Ethyl-2-fluoro-4-(2-hydroxypropoxy)phenyl]-5-methyl-4,5-dihydro-2H-pyridazin-3-one]
13 | 5.2 nM | CC1CC(=O)NN=C1c1cc(F)c(OCC(O)(C(F)(F)F)C(F)(F)F)c(Br)c1 (centres unmarked) [Example 38, 6-{3-Bromo-5-fluoro-4-[3,3,3-trifluoro-2-hydroxy-2-(trifluoromethyl)propoxy]phenyl}-5-methyl-4,5-dihydro-2H-pyridazin-3-one]
14 | 1 nM | CC1CC(=O)NN=C1c1cc(F)c(OCC(C)(C)CO)c(Cl)c1 (centres unmarked) [Example 7, 6-[3-chloro-5-fluoro-4-(3-hydroxy-2,2-dimethylpropoxy)phenyl]-5-methyl-4,5-dihydro-2H-pyridazin-3-one]
15 | 4.1 nM | CC1CC(=O)NN=C1c1ccc(OCC(F)(F)CO)c(F)c1F (centres unmarked) [Example 108, 6-[4-(2,2-Difluoro-3-hydroxypropoxy)-2,3-difluorophenyl]-5-methyl-4,5-dihydro-2H-pyridazin-3-one]
16 | 3.8 nM | CC1CC(=O)NN=C1c1cc(F)c(OCC(C)(C)CO)c(F)c1 (centres unmarked) [Example 6, 6-[3,5-Difluoro-4-(3-hydroxy-2,2-dimethylpropoxy)phenyl]-5-methyl-4,5-dihydro-2H-pyridazin-3-one]
17 | < 1 nM | C[C@@H]1CC(=O)NN=C1c1ccc(OCC(C)(C)O)c(Cl)c1F [Example 118, (5R)-(−)-6-[3-chloro-2-fluoro-4-(2-hydroxy-2-methylpropoxy)phenyl]-5-methyl-4,5-dihydro-2H-pyridazin-3-one]
18 | 3 nM | CC1CC(=O)NN=C1c1cc(F)c(OC/C=C\CO)c(Cl)c1 (centres unmarked) [Example 94, 6-{3-Chloro-5-fluoro-4-[(Z)-4-hydroxy-2-butenyloxy]phenyl}-5-methyl-4,5-dihydro-2H-pyridazin-3-one]
19 | 4.9 nM | Cc1cc(C2=NNC(=O)CC2C)c(O)c(Cl)c1OCC(C)O (centres unmarked) [Example 164, 6-[3-Chloro-2-hydroxy-4-(2-hydroxypropoxy)-5-methylphenyl]-5-methyl-4,5-dihydro-2H-pyridazin-3-one]
20 | 6.4 nM | CC1CC(=O)NN=C1c1ccc(OCC(F)(F)CO)c(Cl)c1O (centres unmarked) [Example 162, 6-[3-Chloro-4-(2,2-difluoro-3-hydroxypropoxy)-2-hydroxyphenyl]-5-methyl-4,5-dihydro-2H-pyridazin-3-one]
21 | 3.4 nM | C=Cc1c(OCC(C)(C)O)ccc(C2=NNC(=O)CC2C)c1F (centres unmarked) [Example 133, 6-[2-Fluoro-4-(2-hydroxy-2-methylpropoxy)-3-vinylphenyl]-5-methyl-4,5-dihydro-2H-pyridazin-3-one]
22 | 1 nM | CC1CC(=O)NN=C1c1cc(F)c(OCC(C)(C)O)c(Cl)c1F (centres unmarked) [Example 131, 6-[3-chloro-2,5-difluoro-4-(2-hydroxy-2-methylpropoxy)phenyl]-5-methyl-4,5-dihydro-2H-pyridazin-3-one]
23 | 1.1 nM | Cc1cc(C2=NNC(=O)CC2C)cc(Cl)c1OCC(C)(C)O (centres unmarked) [Example 31, 6-[3-chloro-4-(2-hydroxy-2-methylpropoxy)-5-methylphenyl]-5-methyl-4,5-dihydro-2H-pyridazin-3-one]
24 | 5.2 nM | Cc1c(OCC(C)(C)O)ccc(C2=NNC(=O)CC2C)c1F (centres unmarked) [Example 34, 6-[2-Fluoro-4-(2-hydroxy-2-methylpropoxy)-3-methylphenyl]-5-methyl-4,5-dihydro-2H-pyridazin-3-one]
25 | 4 nM | CC1CC(=O)NN=C1c1cc(F)c(OCC2(O)CC2)c(Br)c1 (centres unmarked) [Example 169, 6-{3-Bromo-5-fluoro-4-[(1-hydroxycyclopropyl)methoxy]phenyl}-5-methyl-4,5-dihydro-2H-pyridazin-3-one]

Row | Compound | IC50
26 | CCC(O)COc1c(F)cc(C2=NNC(=O)CC2C)cc1Cl (centres unmarked) [Example 62, 6-[3-Chloro-5-fluoro-4-(2-hydroxybutoxy)phenyl]-5-methyl-4,5-dihydro-2H-pyridazin-3-one] | 8.9 nM
27 | Cc1c(OCCCCO)ccc(C2=NNC(=O)CC2C)c1F (centres unmarked) [Example 83, 6-[2-Fluoro-4-(4-hydroxybutoxy)-3-methylphenyl]-5-methyl-4,5-dihydro-2H-pyridazin-3-one] | 6.6 nM
28 | CCC(O)COc1ccc(C2=NNC(=O)CC2C)c(F)c1Cl (centres unmarked) [Example 64, 6-[3-chloro-2-fluoro-4-(2-hydroxybutoxy)phenyl]-5-methyl-4,5-dihydro-2H-pyridazin-3-one] | 2.1 nM
29 | CC1CC(=O)NN=C1c1cc(Cl)c(OCCCCO)c(Cl)c1 (centres unmarked) [Example 81, 6-[3,5-Dichloro-4-(4-hydroxybutoxy)phenyl]-5-methyl-4,5-dihydro-2H-pyridazin-3-one] | 4.7 nM
